Measurements published in PubChem BioAssay AID260 (DTP/NCI, 2004).
Where “and” joins values, the source holds several entries; their conditions need not be identical. Identical values can stand only once. Toxic doses and inconclusive results are not listed.

Tested on: CD2F1 mice, intracerebral L1210 leukemia, survival T/C
Assay: NCI In Vivo Anticancer Drug Screen. Data for tumor model L1210 Leukemia (intracerebral) in CD2F1 (CDF1) mice
Conditions: higher = longer survival
Procedure: The antitumor activity of compounds was measured in mice bearing transplantable tumors. Survival or tumor size were measured and the results are expressed as the measurement made in the treated group (T) divided by the measurement made in the vehicle treated control group (C). The tumor model used in this assay is L1210 Leukemia (intracerebral) in CD2F1 (CDF1) mice

[1] = endpoint: median survival time, dose: 32.0 mg/kg/injection, schedule: Q01DX005 (ip), vehicle: saline with Tween-80
[2] = endpoint: median survival time, dose: 100.0 mg/kg/injection, schedule: Q01DX005 (ip), vehicle: Klucel (hydroxypropylcellulose) (HPC)
[3] = endpoint: median survival time, dose: 200.0 mg/kg/injection, schedule: Q01DX005 (ip), vehicle: Klucel (hydroxypropylcellulose) (HPC)

Question: Which results are given for `CN(C)/N=N/c1[nH]ncc1C(N)=O`?
Answer: T/C [1]: 112 % of control; T/C (endpoint: median survival time, dose: 128.0 mg/kg/injection, schedule: Q01DX005 (ip), vehicle: saline with Tween-80): 122 % of control; T/C (endpoint: median survival time, dose: 256.0 mg/kg/injection, schedule: Q01DX005 (ip), vehicle: saline with Tween-80): 114 % of control

Question: `CN(C)N=Nc1ccccc1C(=O)O` was tested. Which T/C (endpoint: mean survival time, dose: 5.0 mg/kg/injection, schedule: Q01DX007 (ip), vehicle: other) did it give?
Answer: 103 % of control

Question: What about the T/C (endpoint: mean survival time, dose: 10.0 mg/kg/injection, schedule: Q01DX007 (ip), vehicle: other) of the same compound?
Answer: 109 % of control

Question: What about the T/C (endpoint: mean survival time, dose: 20.0 mg/kg/injection, schedule: Q01DX007 (ip), vehicle: other) of the same compound?
Answer: 112 % of control

Question: What about the T/C (endpoint: mean survival time, dose: 40.0 mg/kg/injection, schedule: Q01DX007 (ip), vehicle: other) of the same compound?
Answer: 101 % of control

Question: What about the T/C (endpoint: median survival time, dose: 4.0 mg/kg/injection, schedule: Q01DX005 (ip), vehicle: saline + alcohol) of the same compound?
Answer: 105 % of control

Question: And the T/C (endpoint: median survival time, dose: 8.0 mg/kg/injection, schedule: Q01DX005 (ip), vehicle: saline + alcohol)?
Answer: 102 % of control

Question: What about the T/C (endpoint: median survival time, dose: 16.0 mg/kg/injection, schedule: Q01DX005 (ip), vehicle: saline + alcohol) of the same compound?
Answer: 105 % of control

Question: What about the T/C (endpoint: median survival time, dose: 32.0 mg/kg/injection, schedule: Q01DX005 (ip), vehicle: saline + alcohol) of the same compound?
Answer: 108 % of control

Question: And the T/C (endpoint: median survival time, dose: 64.0 mg/kg/injection, schedule: Q01DX005 (ip), vehicle: saline + alcohol)?
Answer: 97 % of control

Question: `CC(=O)NNC(=O)c1ccccn1` was tested. Which T/C [2] did it give?
Answer: 103 % of control

Question: And the T/C [3]?
Answer: 105 % of control

Question: `COC(=O)C(Cc1ccc(N(CCCl)CCCl)cc1)N=NNc1nc[nH]c1C(N)=O` (stereo unspecified) was tested. Which T/C (endpoint: median survival time, dose: 8.0 mg/kg/injection, schedule: Q01DX005 (ip), vehicle: saline with Tween-80) did it give?
Answer: 95 % of control

Question: What about the T/C (endpoint: median survival time, dose: 16.0 mg/kg/injection, schedule: Q01DX005 (ip), vehicle: saline with Tween-80) of the same compound?
Answer: 115 % of control

Question: What about the T/C [1] of the same compound?
Answer: 95 % of control

Question: `C=CCN(C)N=Nc1ccc(C(N)=O)cc1` was tested. Which T/C (endpoint: mean survival time, dose: 25.0 mg/kg/injection, schedule: Q01DX009 (ip), vehicle: Klucel (hydroxypropylcellulose) (HPC)) did it give?
Answer: 98 % of control

Question: What about the T/C (endpoint: mean survival time, dose: 50.0 mg/kg/injection, schedule: Q01DX009 (ip), vehicle: Klucel (hydroxypropylcellulose) (HPC)) of the same compound?
Answer: 108 % of control

Question: And the T/C (endpoint: mean survival time, dose: 100.0 mg/kg/injection, schedule: Q01DX009 (ip), vehicle: Klucel (hydroxypropylcellulose) (HPC))?
Answer: 118 % of control

Question: What about the T/C (endpoint: mean survival time, dose: 200.0 mg/kg/injection, schedule: Q01DX009 (ip), vehicle: Klucel (hydroxypropylcellulose) (HPC)) of the same compound?
Answer: 118 % of control

Question: How did the T/C (endpoint: median survival time, dose: 50.0 mg/kg/injection, schedule: Q01DX005 (ip), vehicle: Klucel (hydroxypropylcellulose) (HPC)) turn out when `COc1cc(C[C@H]2c3cc(OC)c(OC)cc3CCN2C)c(Oc2cc3c(cc2OC)-c2c(OC)c(OC)cc4c2[C@H](C3)N(C)CC4)cc1OC` was run?
Answer: 97 % of control

Question: And the T/C [2]?
Answer: 102 % of control

Question: And the T/C [3]?
Answer: 94 % of control

Question: How did the T/C (endpoint: median survival time, dose: 2.0 mg/kg/injection, schedule: Q01DX001 (ip), vehicle: saline + alcohol) turn out when `O=NN(CCCl)C(=O)NC1CCC(=O)NC1=O` (stereo unspecified) was run?
Answer: 112 % of control

Question: What about the T/C (endpoint: median survival time, dose: 8.0 mg/kg/injection, schedule: Q01DX001 (ip), vehicle: DMSO) of the same compound?
Answer: 602 % of control

Question: What about the T/C (endpoint: median survival time, dose: 8.0 mg/kg/injection, schedule: Q01DX001 (ip), vehicle: saline + alcohol) of the same compound?
Answer: 192 % of control

Question: What about the T/C (endpoint: median survival time, dose: 8.0 mg/kg/injection, schedule: Q01DX001 (oral), vehicle: saline + alcohol) of the same compound?
Answer: 168 % of control

Question: And the T/C (endpoint: median survival time, dose: 16.0 mg/kg/injection, schedule: Q01DX001 (ip), vehicle: DMSO)?
Answer: 215 % of control

Question: What about the T/C (endpoint: median survival time, dose: 16.0 mg/kg/injection, schedule: Q01DX001 (ip), vehicle: saline + alcohol) of the same compound?
Answer: 224 % of control

Question: And the T/C (endpoint: median survival time, dose: 16.0 mg/kg/injection, schedule: Q01DX001 (oral), vehicle: saline + alcohol)?
Answer: 236 % of control

Question: And the T/C (endpoint: median survival time, dose: 32.0 mg/kg/injection, schedule: Q01DX001 (ip), vehicle: DMSO)?
Answer: 95 % of control

Question: What about the T/C (endpoint: median survival time, dose: 32.0 mg/kg/injection, schedule: Q01DX001 (ip), vehicle: saline + alcohol) of the same compound?
Answer: 389 % of control

Question: And the T/C (endpoint: median survival time, dose: 32.0 mg/kg/injection, schedule: Q01DX001 (oral), vehicle: saline + alcohol)?
Answer: 164 % of control

Question: And the T/C (endpoint: median survival time, dose: 64.0 mg/kg/injection, schedule: Q01DX001 (oral), vehicle: saline + alcohol)?
Answer: 97 % of control

Question: `O=C1c2ccccc2C(=O)c2c(NCCNCCO)ccc(NCCNCCO)c21` was tested. Which T/C (endpoint: median survival time, dose: 4.0 mg/kg/injection, schedule: Q01DX009 (ip), vehicle: saline with Tween-80) did it give?
Answer: 118 % of control

Question: And the T/C (endpoint: median survival time, dose: 4.0 mg/kg/injection, schedule: Q01DX009 (ip), vehicle: saline)?
Answer: 102 % of control and 111 % of control

Question: What about the T/C (endpoint: median survival time, dose: 8.0 mg/kg/injection, schedule: Q01DX009 (ip), vehicle: saline) of the same compound?
Answer: 119 % of control and 102 % of control

Question: And the T/C (endpoint: median survival time, dose: 16.0 mg/kg/injection, schedule: Q01DX009 (ip), vehicle: saline)?
Answer: 121 % of control and 124 % of control

Question: And the T/C (endpoint: median survival time, dose: 32.0 mg/kg/injection, schedule: Q01DX009 (ip), vehicle: saline with Tween-80)?
Answer: 97 % of control

Question: And the T/C (endpoint: median survival time, dose: 32.0 mg/kg/injection, schedule: Q01DX009 (ip), vehicle: saline)?
Answer: 103 % of control
